Values joined by “and” are separate entries in the source; they are usually repeats but may differ in a detail not shown here. Equal values may be shown once.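 Briefly, cells in 96-well plates were exposed to five compound concentrations for 48 h, and endpoints were estimated by linear interpolation. GI50: concentration for 50% inhibition of growth. TGI: concentration producing complete growth inhibition.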

Among the test systems are HCT-15 colon; A498 renal; NCI-H23 lung; SF-268 CNS; SK-MEL-28 melanoma; 786-0 renal; CCRF-CEM leukemia; U251 CNS; HL-60(TB) leukemia; HOP-62 NSCLC.
Common to all, as to assay: growth of human tumour cells (NCI), 48 h

As to `COc1cc(C2C3=C(COC3=O)N(CCO)c3cc4c(cc32)CCC4)cc(OC)c1O` (stereo not drawn), the GI50 is 1090 nM in the assay with HCT-15 colon; 131 nM with A498 renal; 402 nM in the assay with NCI-H23 lung; 182 nM in the assay on SF-268 CNS; 213 nM in the assay with SK-MEL-28 melanoma; 770 nM in the assay on 786-0 renal. Also, the GI50 is 1210 nM with CCRF-CEM leukemia, 145 nM in the assay with U251 CNS, 87.4 nM with HL-60(TB) leukemia and 213 nM with HOP-62 NSCLC. For the same compound, the TGI in the assay with HCT-15 colon was greater than 32.5 µM; with A498 renal, 5.64 µM; with NCI-H23 lung it was greater than 32.5 µM; in the assay with SF-268 CNS, greater than 32.5 µM; in the assay with SK-MEL-28 melanoma, greater than 32.5 µM; with 786-0 renal, 32 µM. For the same compound, the TGI was greater than 32.5 µM with CCRF-CEM leukemia, greater than 32.5 µM with U251 CNS, 0.448 µM with HL-60(TB) leukemia and greater than 32.5 µM in the assay with HOP-62 NSCLC.

`Cc1nn(-c2ccccc2)c2c1C1C(=C(c3ccc(Cl)cc3)N2)C(=O)Nc2ccccc21` (stereo not drawn): the GI50 was 3000 nM with HCT-15 colon; 4010 nM with A498 renal; 4460 nM with NCI-H23 lung; 5170 nM in the assay with SF-268 CNS; 4650 nM in the assay with SK-MEL-28 melanoma; 3970 nM with 786-0 renal. Further, the GI50 is 2660 nM in the assay on CCRF-CEM leukemia, 2980 nM with U251 CNS, 2250 nM in the assay on HL-60(TB) leukemia and 9880 nM in the assay with HOP-62 NSCLC. Besides, the TGI was 18.6 µM with HCT-15 colon; 26.4 µM with A498 renal; 47.9 µM in the assay with NCI-H23 lung; greater than 100 µM with SF-268 CNS; 62.1 µM with SK-MEL-28 melanoma; 31 µM with 786-0 renal. The TGI was 8.67 µM in the assay on CCRF-CEM leukemia, 12.3 µM in the assay with U251 CNS, 5.25 µM in the assay with HL-60(TB) leukemia and greater than 100 µM with HOP-62 NSCLC.

Regarding `Cc1ccc(C2=Nc3c(N)ncnc3NC(c3cccc(Nc4ccnc5cc(C(F)(F)F)ccc45)c3)C2)cc1` (stereo not drawn), the GI50 was 2820 nM in the assay with HCT-15 colon; 1760 nM with A498 renal; 3600 nM with NCI-H23 lung; 4470 nM in the assay with SF-268 CNS; 3810 nM in the assay with SK-MEL-28 melanoma; 3030 nM in the assay with 786-0 renal. Also, the GI50 is 3850 nM in the assay with CCRF-CEM leukemia, 3730 nM in the assay on U251 CNS, 2950 nM with HL-60(TB) leukemia and 5380 nM in the assay with HOP-62 NSCLC. The TGI was determined as 16.5 µM in the assay with HCT-15 colon; 6.81 µM with A498 renal; 16.7 µM in the assay with NCI-H23 lung; 47.1 µM in the assay on SF-268 CNS; 31.4 µM in the assay with SK-MEL-28 melanoma; 11.2 µM in the assay on 786-0 renal. Also, the TGI in the assay on CCRF-CEM leukemia was greater than 100 µM; in the assay with U251 CNS it was 15.1 µM; in the assay with HL-60(TB) leukemia, 74.7 µM; in the assay on HOP-62 NSCLC, 52.1 µM.

Take `CCOC(=O)/C=C1\Nc2ccccc2C(c2ccccc2)=NC1OC(C)=O` (stereo not drawn): the TGI with HCT-15 colon, in the assay on A498 renal, in the assay on NCI-H23 lung, in the assay with SF-268 CNS, with SK-MEL-28 melanoma and in the assay with 786-0 renal was greater than 100 µM each time. The TGI in the assay on CCRF-CEM leukemia, with U251 CNS, in the assay with HL-60(TB) leukemia and in the assay with HOP-62 NSCLC was greater than 100 µM each time.

As for `CC(C)(C)n1cc(-c2ccnc(NCCNS(=O)(=O)c3ccc(Br)cc3)c2)c(-c2cccc(O)c2)n1`, the GI50 in the assay on HCT-15 colon is 1350 nM; in the assay on A498 renal, 1370 nM; in the assay with NCI-H23 lung it was 1850 nM; in the assay with SF-268 CNS it was 2040 nM; with SK-MEL-28 melanoma it was 1750 nM; in the assay with 786-0 renal it was 1720 nM. Further, the GI50 with CCRF-CEM leukemia was 2690 nM; with U251 CNS, 1530 nM; in the assay with HL-60(TB) leukemia, 581 nM; in the assay with HOP-62 NSCLC it was 1500 nM. Further, the TGI with HCT-15 colon is 2.93 µM; with A498 renal, 3.19 µM; in the assay on NCI-H23 lung it was 3.97 µM; in the assay on SF-268 CNS, 5.96 µM; with SK-MEL-28 melanoma it was 3.26 µM; in the assay with 786-0 renal it was 3.82 µM. For the same compound, the TGI was 18.2 µM in the assay on CCRF-CEM leukemia, 3.29 µM in the assay with U251 CNS, 2.88 µM with HL-60(TB) leukemia and 3 µM in the assay with HOP-62 NSCLC.

As to `Cc1cc(N(CCC#N)S(=O)(=O)c2ccccc2)ccc1C=O`, the TGI in the assay with HCT-15 colon, in the assay on A498 renal, with NCI-H23 lung, in the assay with SF-268 CNS, with SK-MEL-28 melanoma and in the assay on 786-0 renal was greater than 100 µM throughout. Further, the TGI in the assay with CCRF-CEM leukemia, with U251 CNS, in the assay with HL-60(TB) leukemia and with HOP-62 NSCLC was greater than 100 µM throughout.

As for `COc1ccc(C2=CC(c3cc(OC)c(OC)c(OC)c3)n3ncnc3N2)cc1` (stereo not drawn), the GI50 was 42 nM in the assay with HCT-15 colon; 42.6 nM in the assay on A498 renal; 87.5 nM in the assay on NCI-H23 lung; 83.3 nM in the assay with SF-268 CNS; 10900 nM with SK-MEL-28 melanoma; 44.8 nM with 786-0 renal. For the same compound, the GI50 was 42.5 nM in the assay on CCRF-CEM leukemia, 55.1 nM in the assay with U251 CNS, 25.2 nM in the assay on HL-60(TB) leukemia and 58.8 nM with HOP-62 NSCLC. Also, the TGI in the assay with HCT-15 colon was greater than 100 µM; with A498 renal, 25.1 µM; in the assay with NCI-H23 lung it was 42 µM; in the assay with SF-268 CNS it was 29.7 µM; with SK-MEL-28 melanoma, greater than 100 µM; in the assay with 786-0 renal, greater than 100 µM. Besides, the TGI in the assay with CCRF-CEM leukemia was greater than 100 µM; in the assay on U251 CNS, 29.6 µM; in the assay with HL-60(TB) leukemia it was 0.0612 µM; with HOP-62 NSCLC, 25.2 µM.

For `Oc1cccc(-c2nc3ccccc3s2)c1`, the TGI with HCT-15 colon was greater than 100 µM; in the assay on A498 renal, greater than 100 µM; with NCI-H23 lung, 69.6 µM; with SF-268 CNS, 68.7 µM; in the assay with SK-MEL-28 melanoma, greater than 100 µM; in the assay on 786-0 renal, greater than 100 µM. Also, the TGI in the assay with CCRF-CEM leukemia, in the assay on U251 CNS, in the assay with HL-60(TB) leukemia and in the assay with HOP-62 NSCLC was greater than 100 µM each time.

Take `Cn1c(=O)n(-c2ccc(C(C)(C)C#N)cc2)c2c3cc(-c4cnc5ccccc5c4)ccc3ncc21`: the GI50 is < 10 nM and 5.22 nM in the assay on HCT-15 colon; < 10 nM and 3.65 nM with A498 renal; 16.9 nM and 8.38 nM and < 12.7 nM with NCI-H23 lung; 12.6 nM and 6.57 nM and < 10.9 nM in the assay on SF-268 CNS; 16 nM and 32.8 nM and < 12.3 nM in the assay on SK-MEL-28 melanoma; < 11.8 nM and 5.42 nM and < 10 nM with 786-0 renal. Also, the GI50 with CCRF-CEM leukemia was < 10 nM and 5.75 nM and < 10.9 nM; with U251 CNS, < 11.7 nM and 5.99 nM and < 10 nM; in the assay on HL-60(TB) leukemia, 70.1 nM and 70.5 nM and 78.3 nM; with HOP-62 NSCLC, < 10 nM and 6.05 nM. For the same compound, the TGI in the assay on HCT-15 colon is greater than 100 µM; with A498 renal, 0.007 µM and 0.0306 µM; in the assay with NCI-H23 lung, 15.9 µM and > 10 µM and > 100 µM; in the assay on SF-268 CNS, greater than 100 µM; with CCRF-CEM leukemia it was greater than 100 µM; with U251 CNS, 10.4 µM and > 10 µM and > 100 µM. Also, the TGI in the assay with HL-60(TB) leukemia is 2.4 µM and > 5.01 µM; in the assay with HOP-62 NSCLC, 11.9 µM and > 2.72 µM.

On to `Clc1ccc2c(Cl)ncnc2c1`, for which the TGI with HCT-15 colon, in the assay on A498 renal, with NCI-H23 lung, in the assay on SF-268 CNS, in the assay with SK-MEL-28 melanoma and with 786-0 renal was greater than 100 µM throughout. The TGI in the assay with CCRF-CEM leukemia, with U251 CNS, in the assay with HL-60(TB) leukemia and with HOP-62 NSCLC was greater than 100 µM in each case.

Consider `COC(=O)c1c(C)oc2ccc(OC(C)=O)cc12`, for which the TGI with HCT-15 colon, with A498 renal, in the assay with NCI-H23 lung, in the assay on SF-268 CNS, in the assay with SK-MEL-28 melanoma and in the assay on 786-0 renal was greater than 100 µM each time. The TGI with CCRF-CEM leukemia, in the assay with U251 CNS, with HL-60(TB) leukemia and in the assay on HOP-62 NSCLC was greater than 100 µM each time.

In the case of `CC1=CC2=C(C)C3(CC3)[C@@](C)(O)C(=O)C2=C1`, the TGI with HCT-15 colon is 0.454 µM; in the assay on A498 renal, 0.505 µM; in the assay with NCI-H23 lung, 0.186 µM; in the assay with SF-268 CNS, 0.456 µM; in the assay on SK-MEL-28 melanoma, 0.394 µM; in the assay on 786-0 renal, 0.517 µM. Further, the TGI was greater than 1 µM in the assay on CCRF-CEM leukemia, 0.507 µM in the assay with U251 CNS, 0.587 µM with HL-60(TB) leukemia and 0.356 µM with HOP-62 NSCLC.

Take `CC(C)OP(=O)(OC(C)C)C(N(C)C)P(=O)(OC(C)C)OC(C)C.[Cl][Sn]([Cl])([Cl])[c]1ccccc1`: the GI50 was 3110 nM with HCT-15 colon; 14200 nM in the assay on A498 renal; 4840 nM in the assay on NCI-H23 lung; 2900 nM in the assay on SF-268 CNS; 5010 nM with SK-MEL-28 melanoma; 2840 nM with 786-0 renal. Besides, the GI50 in the assay with CCRF-CEM leukemia is 2070 nM; in the assay with U251 CNS, 4470 nM; in the assay with HL-60(TB) leukemia, 1630 nM; with HOP-62 NSCLC it was 2080 nM. Further, the TGI in the assay on HCT-15 colon was greater than 100 µM; in the assay on A498 renal, 89.8 µM; in the assay with NCI-H23 lung it was 31.3 µM; in the assay on SF-268 CNS it was 31.7 µM; in the assay with SK-MEL-28 melanoma, 75.4 µM; in the assay on 786-0 renal, 12.3 µM. In addition, the TGI with CCRF-CEM leukemia was 18.6 µM; in the assay on U251 CNS, greater than 100 µM; in the assay with HL-60(TB) leukemia it was 4.84 µM; with HOP-62 NSCLC, 7.34 µM.

Values taken from PubChem BioAssay (NCI).
